Source: US20240360102A1, “PYRIMIDINE-4,6-DIAMINE DERIVATIVE, A PREPARATION METHOD THEREFOR, AND A PHARMACEUTICAL APPLICATION THEREOF” (Abbisko Therapeutics Co., Ltd., priority 2021, published 2024)
Values belong to the compound of their own block, whether it stands above or below them.

Tests used:
A431 = assay: Cell proliferation study (CellTiter-Glo), A431 WT; type: cell-based; settings: Homo sapiens, A-431; A431 cells, 72 hrs, CTG
Description: (§1) • DMEM medium (Gibco, 11965118) • RPMI1640 medium (Gibco, 11875119) • Fetal bovine serum (FBS) (GBICO, Cat #10099-141) • CellTiter-Glo® luminescent cell viability assay kit (Promega, Cat #G7572) • Black transparent flat-bottom 96-well plate (Corning®, Cat #3603)
(§2) • SpectraMax multi-label microplate reader MD, 2104-0010A; • Carbon dioxide incubator, Thermo Scientific 3100 series; • Biological safety cabinet, Thermo Scientific, 1300 series model A2; • Inverted microscope, Olympus, CKX41SF; • Siemens refrigerator, KK25E76TI.
(§3) • (1) Cells in the logarithmic growth phase were harvested and counted using a […]. The cell viability was determined by the trypan blue dye exclusion method to ensure cell viability above 90%. • (2) The cell concentration was adjusted to reach a desired final density; 90 μL of cell suspension was added to a 96-well plate. • (3) The cells were incubated overnight in the 96-well plate at 37° C., 5% CO2 and with 95% humidity.
(§4) • (1) 10 μL of PBS was added to each well of the TO plate containing the cells, • (2) The CTG reagent was thawed and the cell plate was equilibrated to room temperature for 30 min. • (3) An equal volume of CTG solution was added to each well. • (4) The cells were lysed by shaking on an orbital shaker for 5 min. • (5) The cell plate was left to stand at room temperature for 20 min to stabilize the fluorescence signal. • (6) The fluorescence signal values of TO were read.
(§5) • (1) According to the compound information table, a corresponding volume of DMSO was added to the corresponding compound powder to prepare a 10 mM stock solution. • (2) A 1000-fold, 3.16-fold-diluted compound solution was prepared. • (3) The 1000× diluted compound solution was diluted 100-fold with PBS to prepare a 10-fold compound solution with a maximum concentration of 10 μM, including 9 concentrations, with 3.16-fold dilution, and 10 μL of the medicament solution was added to each well of the 96-well plate to seed the cells. Triplicate wells were set for each compound concentration, with a final concentration of DMSO being 0.1%. • (4) The cells were placed in the 96-well plate containing the medicament at 37° C., 5% CO2 and with 95% humidity, and cultured for 72 hrs before CTG analysis,
(§6) • (1) The CTG reagent was thawed and the cell plate was equilibrated to room temperature for 30 min. • (2) An equal volume of CTG solution was added to each well. • (3) The cells were lysed by shaking on an orbital shaker for 5 min. • (4) The cell plate was left to stand at room temperature for 20 min to stabilize the fluorescence signal. • (5) The fluorescence values were read.
(§7) Data were analyzed using GraphPad Prism 7.0 software and fitted data were regressed using non-linear S-curves to obtain dose-response curves from which IC50 values (in nM) were calculated.

Ba/F3 EGFR-L858R-C797S = Ba/F3 EGFR-L858R-C797S (Homo sapiens, UniProt P00533, C797S/L858R, cells depend on it); assay: Cell proliferation study (CellTiter-Glo), Ba/F3 EGFR-L858R-C797S; type: cell-based; settings: 72 hrs, CTG, read-out: L858R/C797S IC50
Ba/F3 EGFR-L858R-C797S, sequence (P00533 whole entry C797S/L858R): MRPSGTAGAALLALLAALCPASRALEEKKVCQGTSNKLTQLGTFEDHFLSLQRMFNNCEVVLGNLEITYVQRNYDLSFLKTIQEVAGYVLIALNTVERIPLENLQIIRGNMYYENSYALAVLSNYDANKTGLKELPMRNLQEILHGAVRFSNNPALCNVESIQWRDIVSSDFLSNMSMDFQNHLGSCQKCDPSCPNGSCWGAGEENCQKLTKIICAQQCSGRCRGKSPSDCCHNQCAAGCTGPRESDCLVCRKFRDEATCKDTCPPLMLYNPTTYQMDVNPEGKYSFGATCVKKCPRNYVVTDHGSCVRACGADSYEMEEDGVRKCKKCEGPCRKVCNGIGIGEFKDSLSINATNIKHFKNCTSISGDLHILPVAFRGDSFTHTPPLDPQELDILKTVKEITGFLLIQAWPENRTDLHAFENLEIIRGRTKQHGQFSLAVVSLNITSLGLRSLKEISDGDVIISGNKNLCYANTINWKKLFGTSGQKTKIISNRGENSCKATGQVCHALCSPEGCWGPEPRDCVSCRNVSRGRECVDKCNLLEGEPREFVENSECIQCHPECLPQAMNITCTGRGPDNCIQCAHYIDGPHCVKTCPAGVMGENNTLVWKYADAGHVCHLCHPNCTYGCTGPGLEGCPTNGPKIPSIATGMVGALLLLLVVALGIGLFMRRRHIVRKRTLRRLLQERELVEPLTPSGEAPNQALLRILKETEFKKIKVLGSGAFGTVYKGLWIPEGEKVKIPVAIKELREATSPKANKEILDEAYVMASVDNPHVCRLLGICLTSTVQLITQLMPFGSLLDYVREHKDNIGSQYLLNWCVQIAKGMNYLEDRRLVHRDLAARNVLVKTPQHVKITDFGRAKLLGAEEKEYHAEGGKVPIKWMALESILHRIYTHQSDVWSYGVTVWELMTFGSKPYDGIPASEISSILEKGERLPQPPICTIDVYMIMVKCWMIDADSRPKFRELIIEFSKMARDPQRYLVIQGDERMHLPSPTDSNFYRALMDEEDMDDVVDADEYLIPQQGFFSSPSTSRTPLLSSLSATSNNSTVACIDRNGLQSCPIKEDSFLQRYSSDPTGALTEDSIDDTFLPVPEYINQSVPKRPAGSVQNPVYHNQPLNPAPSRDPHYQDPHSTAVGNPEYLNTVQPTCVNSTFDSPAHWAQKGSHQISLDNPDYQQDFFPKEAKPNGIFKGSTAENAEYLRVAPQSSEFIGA
Description: as §1, §2, §3, §4, §5, §6, §7

Ba/F3 EGFR-Del19-C797S = Ba/F3 EGFR-Del19-C797S (Homo sapiens, UniProt P00533, C797S, cells depend on it, form not given); assay: Cell proliferation study (CellTiter-Glo), Ba/F3 EGFR-Del19-C797S; type: cell-based; settings: 72 hrs, CTG, read-out: Del19/C797S IC50
Ba/F3 EGFR-Del19-C797S, sequence (P00533 with tags, fused parts or gaps DEL746-750/C797S, form open): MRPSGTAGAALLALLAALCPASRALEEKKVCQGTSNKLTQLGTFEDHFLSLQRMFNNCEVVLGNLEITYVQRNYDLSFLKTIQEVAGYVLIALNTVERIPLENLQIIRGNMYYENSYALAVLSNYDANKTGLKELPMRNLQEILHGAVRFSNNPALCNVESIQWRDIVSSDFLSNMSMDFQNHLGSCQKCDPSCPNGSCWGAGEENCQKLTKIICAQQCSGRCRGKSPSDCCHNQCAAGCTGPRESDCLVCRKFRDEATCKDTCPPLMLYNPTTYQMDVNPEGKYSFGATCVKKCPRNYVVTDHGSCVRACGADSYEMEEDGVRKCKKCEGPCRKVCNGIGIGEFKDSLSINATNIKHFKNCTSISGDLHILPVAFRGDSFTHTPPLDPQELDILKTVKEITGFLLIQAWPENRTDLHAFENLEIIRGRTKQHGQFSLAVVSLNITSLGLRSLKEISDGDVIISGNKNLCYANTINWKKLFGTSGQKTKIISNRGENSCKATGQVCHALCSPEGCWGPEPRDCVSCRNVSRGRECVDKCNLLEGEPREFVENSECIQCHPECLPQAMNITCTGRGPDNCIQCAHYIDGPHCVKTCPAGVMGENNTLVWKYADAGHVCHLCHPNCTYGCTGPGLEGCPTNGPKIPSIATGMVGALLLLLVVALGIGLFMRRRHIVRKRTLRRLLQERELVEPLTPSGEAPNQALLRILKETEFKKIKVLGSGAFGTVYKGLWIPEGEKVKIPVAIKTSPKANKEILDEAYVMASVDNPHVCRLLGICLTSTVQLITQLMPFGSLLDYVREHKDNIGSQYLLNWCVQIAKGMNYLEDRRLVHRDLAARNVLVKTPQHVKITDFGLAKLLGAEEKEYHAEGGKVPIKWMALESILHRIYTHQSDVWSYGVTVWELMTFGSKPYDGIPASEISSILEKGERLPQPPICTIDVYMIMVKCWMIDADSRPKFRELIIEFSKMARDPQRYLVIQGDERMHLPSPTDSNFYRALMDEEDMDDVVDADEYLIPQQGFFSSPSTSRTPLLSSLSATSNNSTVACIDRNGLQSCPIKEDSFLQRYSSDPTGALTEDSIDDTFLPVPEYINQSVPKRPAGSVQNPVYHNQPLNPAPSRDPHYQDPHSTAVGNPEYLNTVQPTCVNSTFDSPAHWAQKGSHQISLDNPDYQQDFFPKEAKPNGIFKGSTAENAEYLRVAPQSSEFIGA
Description: as §1, §2, §3, §4, §5, §6, §7

Ba/F3 EGFR-L858R = Ba/F3 EGFR-L858R (Homo sapiens, UniProt P00533, L858R, cells depend on it); assay: Cell proliferation study (CellTiter-Glo), Ba/F3 EGFR-L858R; type: cell-based; settings: 72 hrs, CTG, read-out: L858R IC50
Ba/F3 EGFR-L858R, sequence (P00533 whole entry L858R): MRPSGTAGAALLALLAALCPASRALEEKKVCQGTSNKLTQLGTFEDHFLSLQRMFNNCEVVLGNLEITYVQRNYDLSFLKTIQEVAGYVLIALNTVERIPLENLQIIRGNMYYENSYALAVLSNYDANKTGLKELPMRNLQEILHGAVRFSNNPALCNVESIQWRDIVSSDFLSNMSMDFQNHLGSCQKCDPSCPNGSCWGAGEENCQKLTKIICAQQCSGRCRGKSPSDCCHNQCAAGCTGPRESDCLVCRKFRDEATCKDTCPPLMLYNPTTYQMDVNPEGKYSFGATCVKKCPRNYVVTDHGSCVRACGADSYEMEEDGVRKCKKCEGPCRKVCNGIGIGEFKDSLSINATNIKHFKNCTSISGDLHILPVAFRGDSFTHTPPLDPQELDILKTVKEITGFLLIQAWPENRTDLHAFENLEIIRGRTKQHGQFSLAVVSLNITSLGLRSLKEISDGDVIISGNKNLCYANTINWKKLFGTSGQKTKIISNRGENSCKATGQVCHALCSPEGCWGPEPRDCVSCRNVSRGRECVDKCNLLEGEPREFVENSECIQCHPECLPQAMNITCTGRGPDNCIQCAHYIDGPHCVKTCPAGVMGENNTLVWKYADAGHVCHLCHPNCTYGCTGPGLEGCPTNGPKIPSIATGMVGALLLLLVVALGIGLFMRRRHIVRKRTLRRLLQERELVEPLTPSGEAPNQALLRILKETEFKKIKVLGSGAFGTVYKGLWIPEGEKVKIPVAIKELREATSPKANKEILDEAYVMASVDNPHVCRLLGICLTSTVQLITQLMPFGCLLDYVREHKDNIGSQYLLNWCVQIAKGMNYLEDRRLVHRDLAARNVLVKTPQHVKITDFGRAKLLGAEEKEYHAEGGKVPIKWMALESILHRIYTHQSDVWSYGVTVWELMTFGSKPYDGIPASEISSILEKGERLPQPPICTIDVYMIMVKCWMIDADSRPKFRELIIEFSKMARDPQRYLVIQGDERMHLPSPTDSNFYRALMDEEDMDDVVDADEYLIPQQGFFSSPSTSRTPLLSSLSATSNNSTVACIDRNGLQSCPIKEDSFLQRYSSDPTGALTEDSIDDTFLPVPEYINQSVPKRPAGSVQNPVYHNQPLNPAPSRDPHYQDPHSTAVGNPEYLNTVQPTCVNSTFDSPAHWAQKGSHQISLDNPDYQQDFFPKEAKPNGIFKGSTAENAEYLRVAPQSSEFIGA
Description: as §1, §2, §3, §4
as §5, with “Triplicate wells were set for each compound concentration, with a final concentration of DMSO being 0.1%. • (4) The cells were placed in the 96-well plate containing the medicament at 37° C., 5% CO2 and with 95% humidity, and cultured for 72 hrs before CTG analysis,” left out
as §6, §7

Ba/F3 EGFR-Del19 = Ba/F3 EGFR-Del19 (Homo sapiens, UniProt P00533, cells depend on it, form not given); assay: Cell proliferation study (CellTiter-Glo), Ba/F3 EGFR-Del19; type: cell-based; settings: 72 hrs, CTG, read-out: Del19 IC50
Ba/F3 EGFR-Del19, sequence (P00533 with tags, fused parts or gaps DEL746-750): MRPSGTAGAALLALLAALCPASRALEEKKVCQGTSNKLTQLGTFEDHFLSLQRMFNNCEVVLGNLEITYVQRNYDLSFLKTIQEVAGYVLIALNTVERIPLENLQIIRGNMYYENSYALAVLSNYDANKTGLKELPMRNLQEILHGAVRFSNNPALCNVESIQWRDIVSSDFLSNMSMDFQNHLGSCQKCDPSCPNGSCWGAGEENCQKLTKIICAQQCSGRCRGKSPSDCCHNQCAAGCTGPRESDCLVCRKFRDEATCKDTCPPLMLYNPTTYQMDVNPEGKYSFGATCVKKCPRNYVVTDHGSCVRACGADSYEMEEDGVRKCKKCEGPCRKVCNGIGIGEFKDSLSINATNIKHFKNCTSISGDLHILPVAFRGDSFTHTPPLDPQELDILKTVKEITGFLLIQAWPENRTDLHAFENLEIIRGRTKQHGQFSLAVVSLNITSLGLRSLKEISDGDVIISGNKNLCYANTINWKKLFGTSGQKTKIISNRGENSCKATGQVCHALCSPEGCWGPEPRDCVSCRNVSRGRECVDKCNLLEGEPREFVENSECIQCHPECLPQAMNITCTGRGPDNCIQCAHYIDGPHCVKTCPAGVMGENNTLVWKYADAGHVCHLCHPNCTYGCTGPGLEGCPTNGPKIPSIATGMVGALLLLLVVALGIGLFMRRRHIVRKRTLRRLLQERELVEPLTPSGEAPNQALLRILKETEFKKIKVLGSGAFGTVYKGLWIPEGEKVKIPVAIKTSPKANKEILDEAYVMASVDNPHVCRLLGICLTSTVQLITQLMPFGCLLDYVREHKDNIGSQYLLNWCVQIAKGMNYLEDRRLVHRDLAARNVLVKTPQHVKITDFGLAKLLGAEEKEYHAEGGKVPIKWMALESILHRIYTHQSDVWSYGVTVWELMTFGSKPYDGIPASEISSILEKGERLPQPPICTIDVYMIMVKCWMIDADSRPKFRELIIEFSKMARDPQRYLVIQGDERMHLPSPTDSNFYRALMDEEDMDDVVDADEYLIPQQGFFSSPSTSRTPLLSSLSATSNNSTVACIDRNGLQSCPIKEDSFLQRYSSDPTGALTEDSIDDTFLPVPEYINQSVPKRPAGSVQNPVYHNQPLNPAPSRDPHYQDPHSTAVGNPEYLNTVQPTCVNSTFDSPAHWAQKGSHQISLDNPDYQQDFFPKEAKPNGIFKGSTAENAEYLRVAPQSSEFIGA
Description: as §1, §2, §3, §4
as §5, with “Triplicate wells were set for each compound concentration, with a final concentration of DMSO being 0.1%. • (4) The cells were placed in the 96-well plate containing the medicament at 37° C., 5% CO2 and with 95% humidity, and cultured for 72 hrs before CTG analysis,” left out
as §6, §7

[1] = tested on: EGFR-Mutated Advanced Non-Small-Cell Lung Cancer; settings: patients, untreated EGFR-mutated advanced NSCLC; cited from earlier work

Compound: COc1cc(N2CCC(N3CCN(C)CC3)CC2)c(C)cc1Nc1cc(Nc2ccnc(-c3ccccc3F)c2)ncn1 [Example 1, N^4-(2-(2-fluorophenyl)pyridin-4-yl)-N^6-(2-methoxy-5-methyl-4-(4-(4-methylpiperazin-1-yl)piperidin-1-yl)phenyl)pyrimidine-4,6-diamine]
- IC50 (A431): 182 nM
- GI50 (Ba/F3 EGFR-L858R-C797S): 9.1 nM
- GI50 (Ba/F3 EGFR-Del19-C797S): 3.7 nM
- GI50 (Ba/F3 EGFR-L858R): 3 nM
- GI50 (Ba/F3 EGFR-Del19): 3.4 nM

Compound: COc1cc(N2CCC(N3CCN(C)CC3)CC2)c(C2CC2)cc1Nc1cc(Nc2ccnc(-c3ccccc3F)c2)ncn1 [Example 8, N^4-(5-cyclopropyl-2-methoxy-4-(4-(4-methylpiperazin-1-yl)piperidin-1-yl)phenyl)-N^6-(2-(2-fluorophenyl)pyridin-4-yl)pyrimidine-4,6-diamine]
- IC50 (A431): 1660 nM
- GI50 (Ba/F3 EGFR-L858R-C797S): 40 nM
- GI50 (Ba/F3 EGFR-Del19-C797S): 34.6 nM

Compound: COc1cc(N2CCC(N3CCN(C)CC3)CC2)c(-c2cnn(C)c2)cc1Nc1cc(Nc2ccnc(-c3ccccc3F)c2)ncn1 [Example 9, N^4-(2-(2-fluorophenyl)pyridin-4-yl)-N^6-(2-methoxy-5-(1-methyl-1H-pyrazol-4-yl)-4-(4-(4-methylpiperazin-1-yl)piperidin-1-yl)phenyl)pyrimidine-4,6-diamine]
- IC50 (A431): 1520 nM
- GI50 (Ba/F3 EGFR-L858R-C797S): 68.6 nM

Compound: COc1cc(N2CCOCC2)c(-c2cnn(C)c2)cc1Nc1cc(Nc2ccnc(-c3ccccc3F)c2)ncn1 [Example 10, N^4-(2-(2-fluorophenyl)pyridin-4-yl)-N^6-(2-methoxy-5-(1-methyl-1H-pyrazol-4-yl)-4-morpholinophenyl)pyrimidine-4,6-diamine]
- GI50 (Ba/F3 EGFR-L858R-C797S): 117 nM

Compound: COc1cc(N2CCN(C)CC2)c(-c2cnn(C)c2)cc1Nc1cc(Nc2ccnc(-c3ccccc3F)c2)ncn1 [Example 11, N^4-(2-(2-fluorophenyl)pyridin-4-yl)-N^6-(2-methoxy-5-(1-methyl-1H-pyrazol-4-yl)-4-(4-methylpiperazin-1-yl)phenyl)pyrimidine-4,6-diamine]
- IC50 (A431): 306 nM
- GI50 (Ba/F3 EGFR-L858R-C797S): 72.6 nM

Compound: COc1cc(N2CCC(N3CCN(C)CC3)CC2)c(C)cc1Nc1cc(Nc2cncc(-c3ccccc3F)c2)ncn1 [Example 12, N^4-(5-(2-fluorophenyl)pyridin-3-yl)-N^6-(2-methoxy-5-methyl-4-(4-(4-methylpiperazin-1-yl)piperidin-1-yl)phenyl)pyrimidine-4,6-diamine]
- IC50 (A431): 2340 nM
- GI50 (Ba/F3 EGFR-L858R-C797S): 77.4 nM

Compound: COc1cc(N2CCC(N3CCN(C)CC3)CC2)c(Cl)cc1Nc1cc(Nc2ccnc(-c3ccccc3F)c2)ncn1 [Example 14, N^4-(5-chloro-2-methoxy-4-(4-(4-methylpiperazin-1-yl)piperidin-1-yl)phenyl)-N^6-(2-(2-fluorophenyl)pyridin-4-yl)pyrimidine-4,6-diamine]
- IC50 (A431): 228 nM
- GI50 (Ba/F3 EGFR-L858R-C797S): 21.4 nM
- GI50 (Ba/F3 EGFR-Del19-C797S): 21.9 nM

Compound: COc1cc(N2CCC(N3CCN(C)CC3)CC2)c(Br)cc1Nc1cc(Nc2ccnc(-c3ccccc3F)c2)ncn1 [Example 15, N^4-(5-bromo-2-methoxy-4-(4-(4-methylpiperazin-1-yl)piperidin-1-yl)phenyl)-N-(2-(2-fluorophenyl)pyridin-4-yl)pyrimidine-4,6-diamine]
- IC50 (A431): 181 nM
- GI50 (Ba/F3 EGFR-L858R-C797S): 18.3 nM

Compound: CCN1CCN(C2CCN(c3cc(OC)c(Nc4cc(Nc5ccnc(-c6ccccc6F)c5)ncn4)cc3C)CC2)CC1 [Example 16, N^4-(4-(4-(4-ethylpiperazin-1-yl)piperidin-1-yl)-2-methoxy-5-methylphenyl)-N^6-(2-(2-fluorophenyl)pyridin-4-yl)pyramidine-4,6-diamine]
- IC50 (A431): 177 nM
- GI50 (Ba/F3 EGFR-L858R-C797S): 11.3 nM
- GI50 (Ba/F3 EGFR-Del19-C797S): 12.9 nM
- GI50 (Ba/F3 EGFR-L858R): 3.9 nM
- GI50 (Ba/F3 EGFR-Del19): 3.1 nM

Compound: Cc1cc(Nc2cc(Nc3ccnc(-c4ccccc4F)c3)ncn2)c(Cl)cc1N1CCC(N2CCN(C)CC2)CC1 [Example 18, N^4-(2-chloro-5-methyl-4-(4-(4-methylpiperazin-1-yl)piperidin-1-yl)phenyl)-N^6-(2-(2-fluorophenyl)pyridin-4-yl)pyrimidine-4-diamine]
- IC50 (A431): 984 nM
- GI50 (Ba/F3 EGFR-L858R-C797S): 21.7 nM
- GI50 (Ba/F3 EGFR-Del19-C797S): 25.1 nM

Compound: C=CC(=O)Nc1cc(Nc2nccc(-c3cn(C)c4ccccc34)n2)c(OC)cc1N(C)CCN(C)C [osimertinib]
- overall survival [1]: 38.6 months
- progression-free survival [1]: 18.9 months

The remaining compounds from weak to strong by GI50 (Ba/F3 EGFR-L858R-C797S), led by results:

- IC50 (A431): 1060 nM
- GI50 (Ba/F3 EGFR-L858R-C797S): 87.8 nM
- GI50 (Ba/F3 EGFR-Del19-C797S): 85 nM
Compound: CN1CCN(C2CCN(c3cc(Cl)c(Nc4cc(Nc5ccnc(-c6ccccc6F)c5)ncn4)cc3Cl)CC2)CC1 [Example 17, N^4-(2,5-dichloro-4-(4-(4-methylpiperazin-1-yl)piperidin-1-yl)phenyl)-N^6-(2-(2-fluorophenyl)pyridin-4-yl)pyrimidine-4,6-diamine]

- IC50 (A431): 2500 nM
- GI50 (Ba/F3 EGFR-L858R-C797S): 69.1 nM
Compound: COc1cc(N2CCC(N3CCN(C)CC3)CC2)c(C(C)C)cc1Nc1cc(Nc2ccnc(-c3ccccc3F)c2)ncn1 [Example 7, N^4-(2-(2-fluorophenyl)pyridin-4-yl)-N^6-(5-isopropyl-2-methoxy-4-(4-(4-methylpiperazin-1-yl)piperidin-1-yl)phenyl)pyrimidine-4,6-diamine]

- GI50 (Ba/F3 EGFR-L858R-C797S): 53.2 nM
Compound: Cc1cc(Nc2cc(Nc3ccnc(-c4ccccc4F)c3)ncn2)c(OCC(F)(F)F)cc1N1CCC(N2CCN(C)CC2)CC1 [Example 5, N^4-(2-(2-fluorophenyl)pyridin-4-yl)-N^6-(5-methyl-4-(4-(4-methylpiperazin-1-yl)piperidin-1-yl)-2-(2,2,2-trifluoroethoxy)phenyl)pyrimidine-4,6-diamine]

- IC50 (A431): 1080 nM
- GI50 (Ba/F3 EGFR-L858R-C797S): 32.1 nM
- GI50 (Ba/F3 EGFR-Del19-C797S): 23.7 nM
Compound: CCc1cc(Nc2cc(Nc3ccnc(-c4ccccc4F)c3)ncn2)c(OC)cc1N1CCC(N2CCN(C)CC2)CC1 [Example 6, N^4-(5-ethyl-2-methoxy-4-(4-(4-methylpiperazin-1-yl)piperidin-1-yl)phenyl)-N^6-(2-(2-fluorophenyl)pyridin-4-yl)pyrimidine-4,6-diamine]

- IC50 (A431): 217 nM
- GI50 (Ba/F3 EGFR-L858R-C797S): 23.3 nM
Compound: CCOc1cc(N2CCC(N3CCN(C)CC3)CC2)c(C)cc1Nc1cc(Nc2ccnc(-c3ccccc3F)c2)ncn1 [Example 3, N^4-(2-ethoxy-5-methyl-4-(4-(4-methylpiperazin-1-yl)piperidin-1-yl)phenyl)-N^6-(2-(2-fluorophenyl)pyridin-4-yl)pyrimidine-4,6-diamine]

- IC50 (A431): 182 nM
- GI50 (Ba/F3 EGFR-L858R-C797S): 22.8 nM
- GI50 (Ba/F3 EGFR-Del19-C797S): 16.9 nM
Compound: COc1cc(N2CCC(N3CCN(C)CC3)CC2)c(F)cc1Nc1cc(Nc2ccnc(-c3ccccc3F)c2)ncn1 [Example 13, N^4-(5-fluoro-2-methoxy-4-(4-(4-methylpiperazin-1-yl)piperidin-1-yl)phenyl)-N^6-(2-(2-fluorophenyl)pyridin-4-yl)pyrimidine-4,6-diamine]

- IC50 (A431): 237 nM
- GI50 (Ba/F3 EGFR-L858R-C797S): 12.1 nM
- GI50 (Ba/F3 EGFR-Del19-C797S): 12.7 nM
- GI50 (Ba/F3 EGFR-L858R): 6.2 nM
- GI50 (Ba/F3 EGFR-Del19): 6.6 nM
Compound: Cc1cc(Nc2cc(Nc3ccnc(-c4ccccc4F)c3)ncn2)c(OC(F)F)cc1N1CCC(N2CCN(C)CC2)CC1 [Example 4, N^4-(2-(difluoromethoxy)-5-methyl-4-(4-(4-methylpiperazin-1-yl)piperidin-1-yl)phenyl)-N^6-(2-(2-fluorophenyl)pyridin-4-yl)pyrimidine-4,6-diamine]

- IC50 (A431): 554 nM
- GI50 (Ba/F3 EGFR-L858R-C797S): 10.4 nM
- GI50 (Ba/F3 EGFR-Del19-C797S): 17.4 nM
- GI50 (Ba/F3 EGFR-L858R): 2.9 nM
- GI50 (Ba/F3 EGFR-Del19): 2.8 nM
Compound: COc1cc(N2CCC(N3CCOCC3)CC2)c(C)cc1Nc1cc(Nc2ccnc(-c3ccccc3F)c2)ncn1 [Example 2, N^4-(2-(2-fluorophenyl)pyridin-4-yl)-N^6-(2-methoxy-5-methyl-4-(4-morpholinopiperidin-1-yl)phenyl)pyrimidine-4,6-diamine]
